From patent US20240327411A1, “SIRT6 ACTIVATORS” (The Board of Regents of The University of Texas System, priority 2022, published 2024)

Key:
Sirt6 [1] = target: T1, Sirt6 (Homo sapiens, UniProt Q8N6T7); experiment: Sirt6-dependent peptide deacetylation, FLUOR DE LYS / Sirt6 fluorometric activity kit; assay type: biochemical; conditions: mean ± SD, at least two independent experiments
Method: (§2) Sirt6/Sirt1/Sirt2/Sirt3 activity was tested by Activity Assay Kits (Abcam) according to the manufacturer's instruction with minor modification. […] All experiments were conducted at room temperature.

Sirt6 [2] = target: T1, Sirt6; experiment: Nucleosome test: Sirt6-dependent H3K9 deacetylation of nucleosomes from HEK293T cells, Western blot; assay type: biochemical; conditions: 100 μM, 30° C., 60 minutes
Method: (§1) . Nucleosomes extracted from HEK293T cells were incubated with 100 μM of selected compounds or Vehicle at 30° C. for 60 minutes. Acetylated H3K9 and total H3 were detected by Western blot. The level of acetylated H3K9 was quantified by Image Lab software. FIGS. 5B and 5C show the cell viability which was assessed by MTT assay. R28 cells were treated with 30 μM or 100 μM compounds for 24 hours. Data were presented as mean±SEM. The experiment was repeated at least three times. ***p<0.001; ****p<0.0001.
Next, effects of selected compounds were explored for Sirt6-dependent deacetylation of complete nucleosomes extracted from human embryonic kidney (HEK) 293T cells, as nucleosomes represent more physiologically relevant substrates. […]. Briefly, HEK 293T cells in 100 mm dish were lysed with lysis buffer supplemented with PIC and PMSF for 30 min. After centrifugation for 10 min at 5000 rpm at 4° C., supernatant was removed and nuclei pellet was resuspended with digestion buffer supplemented with PIC and PMSF for 5 min at 37° C. Working enzymatic sharing cocktail was added to digest the chromatin, and EDTA was added after incubation to stop the digestion. Digested nucleosome was obtained in the supernatant after centrifugation for 10 min at 15000 rpm at 4° C. and the concentration was quantified by measuring the absorbance at […]. 20 μg nucleosome was incubated in solution (1× buffer, 0.5 μL recombinant Sirt6 and […] NAD, from SIRT6 ACTIVITY ASSAY KIT) for 60 min. To test the effects of the compounds on Sirt6 activity, corresponding compound or DMSO control was added before incubation. The reaction mixture was analyzed by Western blot.
Proteins were extracted from cells with PIERCE RIPA BUFFER (89901, ThermoFisher Scientific), and protein concentration was determined using PIERCE BCA PROTEIN ASSAY KIT (23225, ThermoFisher Scientific). Equal amounts of protein were loaded and separated by SDS-PAGE gel. Next, separated proteins were transferred onto Nitrocellulose Blotting Membranes (A29457237, GE Healthcare Life science), and then the membranes were blocked by 5% non-fat dry milk. After incubation with corresponding primary antibodies against H3K9ac, H3 and Sirt6 at a 1:1000 dilution, or α-tubulin at a 1:5000 dilution, goat anti-mouse or goat anti-rabbit secondary antibodies at a 1:5000 dilution were applied. Finally, membranes were incubated with enhanced chemiluminescent and protein bands were detected by CHEMIDOC imaging system (Bio-Rad). Image-Lab software was used to analyze the intensities of the protein bands.

[3] = test system: retinal precursor cells (R28); experiment: MTT cell viability assay in R28 cells; assay type: cell-based; conditions: 30 μM, 24 hours
Method: as §1, with “FIGS. 5A-5C: FIGS. 5A-5C display the deacetylation effect and cytotoxicity of selected compounds. […] Nucleosomes” for “. Nucleosomes”
R28 cells were seeded in 96 well plates at a density of 1×10^4/well overnight, then treated with compounds for 24 h. MTT (MilliporeSigma) was added to cells (20 μL/well) and incubated for 3.5 h. After medium was removed, 100 μL dimethyl sulfoxide (DMSO) was added into each well. Absorbance was measured at 540 nm using a microplate reader.

BV2 cells = experiment: LPS-induced inflammatory gene mRNA expression in BV2 cells, q-PCR; assay type: cell-based, murine
SARS-CoV-2 = experiment: microbe, parasite or virus in culture; assay type: cell-based
Sirt1 = target: T2, Sirt1 (Homo sapiens, UniProt Q96EB6); experiment: Sirt1 deacetylation activity assay kit; conditions: time course, FIG. 3
T2 sequence (Q96EB6 1-747): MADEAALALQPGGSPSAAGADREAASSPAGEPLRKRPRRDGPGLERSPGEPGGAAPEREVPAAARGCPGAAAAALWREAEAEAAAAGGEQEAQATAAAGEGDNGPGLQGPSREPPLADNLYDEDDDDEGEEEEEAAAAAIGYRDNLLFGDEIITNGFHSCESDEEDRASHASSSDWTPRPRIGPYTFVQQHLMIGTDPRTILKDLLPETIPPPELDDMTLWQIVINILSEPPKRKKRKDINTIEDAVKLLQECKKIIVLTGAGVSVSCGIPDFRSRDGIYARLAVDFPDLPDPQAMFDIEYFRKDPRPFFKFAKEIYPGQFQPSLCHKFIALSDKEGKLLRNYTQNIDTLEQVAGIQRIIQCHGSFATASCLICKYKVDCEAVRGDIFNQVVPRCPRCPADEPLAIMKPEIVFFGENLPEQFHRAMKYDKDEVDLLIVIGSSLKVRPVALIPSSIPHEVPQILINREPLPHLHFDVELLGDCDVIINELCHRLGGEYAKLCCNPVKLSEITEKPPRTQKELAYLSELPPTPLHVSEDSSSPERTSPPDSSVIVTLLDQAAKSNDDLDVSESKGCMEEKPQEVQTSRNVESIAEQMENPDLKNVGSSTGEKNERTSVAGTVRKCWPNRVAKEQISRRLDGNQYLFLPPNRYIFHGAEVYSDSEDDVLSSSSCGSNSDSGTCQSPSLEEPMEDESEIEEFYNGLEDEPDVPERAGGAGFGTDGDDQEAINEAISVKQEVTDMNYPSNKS
Method: as §2

Sirt3 = target: T3, Sirt3 (Homo sapiens, UniProt Q9NTG7); experiment: Sirt3 deacetylation activity assay kit; conditions: time course, FIG. 3
T3 sequence (Q9NTG7 1-399): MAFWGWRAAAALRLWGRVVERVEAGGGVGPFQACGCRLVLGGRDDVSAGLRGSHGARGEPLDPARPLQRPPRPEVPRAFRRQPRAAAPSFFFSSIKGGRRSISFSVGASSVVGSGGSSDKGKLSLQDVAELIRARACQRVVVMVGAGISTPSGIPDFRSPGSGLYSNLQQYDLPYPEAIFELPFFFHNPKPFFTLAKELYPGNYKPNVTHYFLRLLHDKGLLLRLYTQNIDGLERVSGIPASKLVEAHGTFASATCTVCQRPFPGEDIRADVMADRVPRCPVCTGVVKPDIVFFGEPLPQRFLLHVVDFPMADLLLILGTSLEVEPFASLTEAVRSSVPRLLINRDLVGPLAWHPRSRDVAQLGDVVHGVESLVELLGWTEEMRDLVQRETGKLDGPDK
Method: as §2

A549-hACE2 cells = experiment: Cell viability assay in A549-hACE2 cells; conditions: 50 μM, 48 h
[4] = in mice; literature; cited from earlier work
[5] = test system: colorectal cancer (CRC) cell lines; conditions: various CRC cell lines; literature; cited from earlier work
CRC tumor = conditions: cell line- and patient-derived xenografts, APCmin/+ spontaneous CRC model; literature; cited from earlier work

T1 sequence (Q8N6T7 whole entry): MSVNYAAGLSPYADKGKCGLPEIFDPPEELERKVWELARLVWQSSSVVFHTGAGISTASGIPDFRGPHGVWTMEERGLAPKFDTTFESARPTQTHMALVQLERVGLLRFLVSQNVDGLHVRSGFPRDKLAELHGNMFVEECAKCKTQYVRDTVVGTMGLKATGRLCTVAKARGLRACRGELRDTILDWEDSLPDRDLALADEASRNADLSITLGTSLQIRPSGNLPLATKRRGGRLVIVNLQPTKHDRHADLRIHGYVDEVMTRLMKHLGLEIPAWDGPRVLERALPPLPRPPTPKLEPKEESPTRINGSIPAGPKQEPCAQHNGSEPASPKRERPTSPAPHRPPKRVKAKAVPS

SMILES | Activation Fold 30 μM (Sirt6 [1]; compound at 30 μM) | Activation Fold 100 μM (Sirt6 [1]; compound at 100 μM) | acetylation of H3K9 in the nucleosome test (Sirt6 [2]) | toxicity on retinal precursor cells (R28) [3] | LPS-induced expression of IL-1β, IL-6, MCP-1, and TNFα (BV2 cells; BV2 cells, 30 μM pretreatment 30 minutes, 100 ng/mL LPS 6 hours, mRNA) | ICAM-1 induction (BV2 cells; BV2 cells, 30 μM, 100 ng/mL LPS 6 hours, mRNA) | LPS-induced proinflammatory cytokine/chemokine production (BV2 cells; summary statement) | potency in inhibiting SARS-CoV-2 infection (in words) (SARS-CoV-2) | EC50 (SARS-CoV-2; Severe acute respiratory syndrome coronavirus 2, 48 h, read-out: EC50, SARS-CoV-2 infection) | effect on Sirt1 deacetylation (Sirt1) | effect on Sirt3 deacetylation (Sirt3) | cytotoxicity at the highest tested concentration (A549-hACE2 cells) | bioavailability (F) [4] | antiproliferative effects [5] | anti-tumor efficacy (CRC tumor)
CN(C)CCN1CCN(c2ncccc2C2Nc3ccccc3-n3cccc32)CC1 (stereo not drawn) [Compound 38, 2-(4-(3-(4,5-Dihydropyrrolo[1,2-a]quinoxalin-4-yl)pyridin-2-yl)piperazin-1-yl)-N,N-dimethylethan-1-amine] | 3.83 ± 0.46 fold | 7.38 ± 0.6 fold | significantly decreased the acetylation of H3K9 | no obvious toxicity | strongly inhibited | slight inhibition | strongly repressed | micromolar potency | 9.3 µM | no significant effects | no significant effects | none of these compounds exhibited significant cytotoxicity |  |  | 
Cc1cc(F)c(Br)cc1NS(=O)(=O)c1ccc(NS(=O)(=O)c2cc(Cl)cc(Cl)c2)cc1CN1CCOC[C@H]1C [MDL-811] |  |  |  |  |  |  |  |  |  |  |  |  | 92.96% | broad antiproliferative effects | in vivo anti-tumor efficacy
